Here are results for 69 molecules from ChEMBL document CHEMBL1138565, “Docking, 3D-QSAR studies and in silico ADME prediction on c-Src tyrosine kinase inhibitors” (Eur J Med Chem, 2009).

Chain of Proto-oncogene tyrosine-protein kinase Src (P12931 2-536 limits assumed): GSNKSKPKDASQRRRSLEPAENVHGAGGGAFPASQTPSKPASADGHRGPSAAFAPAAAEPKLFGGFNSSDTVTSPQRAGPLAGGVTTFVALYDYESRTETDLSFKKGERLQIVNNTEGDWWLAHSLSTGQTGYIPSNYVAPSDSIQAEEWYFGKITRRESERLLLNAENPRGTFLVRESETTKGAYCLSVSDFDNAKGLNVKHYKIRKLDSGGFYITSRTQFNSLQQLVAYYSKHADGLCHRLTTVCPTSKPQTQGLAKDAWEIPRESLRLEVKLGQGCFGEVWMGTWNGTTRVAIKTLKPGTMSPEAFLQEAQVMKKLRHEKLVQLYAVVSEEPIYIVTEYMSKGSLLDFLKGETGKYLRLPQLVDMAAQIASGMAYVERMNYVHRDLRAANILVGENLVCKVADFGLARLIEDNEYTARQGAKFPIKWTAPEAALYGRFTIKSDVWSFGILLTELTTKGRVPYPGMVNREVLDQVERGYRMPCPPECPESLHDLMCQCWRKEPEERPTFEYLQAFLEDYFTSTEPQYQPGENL

The test has as its target Proto-oncogene tyrosine-protein kinase Src (Homo sapiens, UniProt P12931). In words: Inhibition of c-Src.
A word on the IC50: it is the concentration needed to halve the response being measured. A low value points to higher potency. `Nc1ncnc2c1c(-c1ccccc1)cn2C1CCCC1` had a half-inhibitory concentration (IC50) of 126 nM. The molecule `Nc1ncnc2c1c(-c1ccccc1)cn2C1CCC1` showed an IC50 of 100 nM.

A word on the Ki: it is a dissociation constant, usually derived from enzyme kinetics or from competition with a known ligand. A low value points to a stronger hold on the target. Consider `CCCNc1ncnc2c1cnn2CC(O)c1ccccc1` (centres undefined), for which the Ki was 10000 nM. In the case of `Nc1ncnc2c1c(-c1ccccc1)cn2CCC(CO)CO`, the 50% inhibitory concentration (IC50) is 2510 nM.

The molecule `COc1cccc(-c2cn(-c3ccccc3)c3ncnc(N)c23)c1` had an IC50 of 50.1 nM. The molecule `CCOC(=O)C[C@@H]1C[C@@H](n2cc(-c3ccc(O)cc3)c3c(N)ncnc32)CN1` showed an IC50 of 100 nM. As to `Nc1ncnc2c1c(-c1cccc(Cl)c1)cn2-c1ccccc1`, inhibition was half-maximal at 200 nM (IC50).

The molecule `CCOC(=O)C[C@@H]1C[C@@H](n2cc(-c3ccc(O)cc3)c3c(N)ncnc32)CN1C(=O)OC(C)(C)C` gave an IC50 of 31.6 nM.

`OCCNCCOc1ccc(-n2cc(-c3cccc(O)c3)c3cncnc32)cc1`: it took 39.8 nM to reach half-maximal inhibition (IC50). Regarding `Nc1ncnc2c1c(-c1ccccc1)cn2-c1ccc(CO)cc1`, the IC50 is 20 nM. On the same count and under the same terms, for `Nc1ncnc2c1c(-c1ccc(O)cc1)cn2[C@H]1CN[C@H](CO)C1` the value was 100 nM; for `COc1ccccc1-c1cn(-c2ccccc2)c2ncnc(N)c12`, 6310 nM; for `COCCN(C)CCN1CCC(n2cc(-c3cccc(OC)c3)c3c(N)ncnc32)CC1`, 50.1 nM. For `OC(Cn1ncc2c(NCc3ccc(F)cc3)ncnc21)c1ccccc1` (centres undefined), the inhibition constant (Ki) is 10000 nM.

Consider `Nc1ncnc2c1c(-c1ccc(O)cc1)cn2[C@@H]1CN[C@H](CO)C1`, for which the concentration for half-maximal inhibition (IC50) was 50.1 nM. Molecule `Nc1ncnc2c1c(-c1ccccc1)cn2[C@@H]1CN[C@H](CO)C1` had a half-maximal inhibitory concentration (IC50) of 126 nM. `CN(C)C(=O)CN1CCC(n2cc(-c3cccc(O)c3)c3c(N)ncnc32)CC1`: 3.16 nM corresponded to half-maximal inhibition (IC50). In the case of `CCOC(=O)C[C@@H]1C[C@@H](n2cc(-c3ccccc3)c3c(N)ncnc32)CN1`, the midpoint of inhibition, the IC50, lay at 631 nM. `CNc1ncnc2c1c(-c1ccccc1)cn2-c1ccccc1` showed an IC50 of 10000 nM. Take `Nc1ncnc2c1c(-c1cccc(O)c1)cn2C1CCC1`: the concentration for half-maximal inhibition (IC50) is 3.98 nM. As to `CCOC(=O)C[C@@H]1C[C@H](n2cc(-c3ccc(O)cc3)c3c(N)ncnc32)CN1`, the half-maximal inhibitory concentration (IC50) is 5.01 nM. Same read-out and setting: for `COc1ccc(-c2cn(C3CCCC3)c3ncnc(N)c23)cc1` the value was 79.4 nM; for `Nc1ncnc2c1c(-c1ccccc1)cn2-c1cccc(CO)c1`, 63.1 nM; for `Nc1ncnc2c1c(-c1ccccc1)nn2-c1ccccc1`, 501 nM.

Take `Nc1ncnc2c1c(-c1ccccc1)cn2-c1ccccc1CNCCO`: the half-inhibitory concentration (IC50) was 5010 nM. Molecule `CC(C)(C)OC(=O)N1C[C@@H](n2cc(-c3ccccc3)c3c(N)ncnc32)C[C@H]1CO` gave an IC50 of 2000 nM. `COc1cccc(-c2cn(-c3ccc(CCN(C)CCO)cc3)c3ncnc(N)c23)c1` showed an IC50 of 31.6 nM. As for `O=c1[nH]cnc2c1c(-c1ccccc1)cn2-c1ccccc1`, the half-maximal inhibitory concentration (IC50) was 10000 nM.

On to `CC(C)(C)OC(=O)N1C[C@@H](n2cc(-c3ccc(O)cc3)c3c(N)ncnc32)C[C@H]1CO`, for which half-maximal inhibition (IC50) was put at 316 nM.

Consider `CC(C)(C)OC(=O)N1C[C@H](n2cc(-c3ccc(O)cc3)c3c(N)ncnc32)C[C@H]1CO`, for which the IC50 is 25.1 nM. For the molecule `Nc1ncnc2c1c(-c1ccccc1)cn2[C@@H](CO)c1ccccc1`, the IC50 is 501 nM. The same measure, in the same setting: for `COc1cccc(-c2cn(C3CCC3)c3ncnc(N)c23)c1` the value was 39.8 nM.

In turn, `ClC(Cn1ncc2c(NCc3ccccc3)ncnc21)c1ccccc1` (centres undefined) had a Ki of 3160 nM. `Nc1ncnc2c1c(-c1ccccc1)cn2-c1ccc(CNCCO)cc1` showed a concentration for half-maximal inhibition (IC50) of 31.6 nM. Molecule `CCOC(=O)C[C@@H]1C[C@@H](n2cc(-c3ccccc3)c3c(N)ncnc32)CN1C(=O)OC(C)(C)C` showed an IC50 of 398 nM.

On to `COc1cccc(-c2cn(-c3ccc(CCN4CCC(O)CC4)cc3)c3ncnc(N)c23)c1`, for which half-maximal inhibition (IC50) required 20 nM. `COc1cccc(-c2cn(C3CCN(CC(=O)N(C)C)CC3)c3ncnc(N)c23)c1` had a half-inhibitory concentration (IC50) of 63.1 nM.

As to `COc1cccc(-c2cn(CC(CO)CO)c3ncnc(N)c23)c1`, it took 316 nM to reach half-maximal inhibition (IC50). As for `COc1cccc(-c2cn(-c3cccc(CO)c3)c3ncnc(N)c23)c1`, it took 63.1 nM to reach half-maximal inhibition (IC50). As for `COc1cccc(-c2cn(-c3ccc(CC(=O)NCCO)cc3)c3ncnc(N)c23)c1`, the IC50 was 20 nM.

Molecule `CCOC(=O)C[C@@H]1C[C@H](n2cc(-c3ccccc3)c3c(N)ncnc32)CN1` gave a half-maximal inhibitory concentration (IC50) of 15.8 nM. `COC(=O)CN1CCC(n2cc(-c3cccc(O)c3)c3c(N)ncnc32)CC1` gave an IC50 of 1 nM. Consider `COc1cccc(-c2cn(C3CCN(CCO)CC3)c3ncnc(N)c23)c1`, for which the 50% inhibitory concentration (IC50) is 25.1 nM.

Molecule `COc1cccc(-c2cn(C3CCCC3)c3ncnc(N)c23)c1` gave an IC50 of 2 nM. As for `O=C(O)c1cnc2c(cnn2/C=C/c2ccccc2)c1NCc1ccccc1`, the inhibition constant Ki was 3980 nM. Turning to `COc1cccc(-c2cn(C3CCN(CCN(C)CCO)CC3)c3ncnc(N)c23)c1`, half-maximal inhibition (IC50) was put at 6.31 nM. Take `Nc1ncnc2c1c(-c1ccccc1)cn2-c1cccc(CNCCO)c1`: the IC50 is 10 nM. `COc1ccc(-c2cn(C3CCC3)c3ncnc(N)c23)cc1` showed an IC50 of 200 nM. Molecule `ClC(Cn1ncc2c(NCCc3ccccc3)ncnc21)c1ccccc1` (centres undefined) showed a Ki of 2000 nM. As for `Nc1ncnc2c1c(-c1ccccc1)cn2-c1ccccc1`, it took 100 nM to reach half-maximal inhibition (IC50).

As to `CC(C)(C)OC(=O)N1C[C@H](n2cc(-c3ccccc3)c3c(N)ncnc32)C[C@H]1CO`, the midpoint of inhibition, the IC50, lay at 126 nM. The molecule `COC(=O)CN1CCC(n2cc(-c3cccc(OC)c3)c3c(N)ncnc32)CC1` showed an IC50 of 79.4 nM. The molecule `Nc1ncnc2c1c(-c1cccc(O)c1)cn2C1CCCC1` showed an IC50 of 1 nM. Take `Nc1ncnc2c1c(-c1ccc(O)cc1)cn2C1CCCC1`: the IC50 was 20 nM. As for `COc1ccc(-c2cn(-c3ccccc3)c3ncnc(N)c23)cc1`, 158 nM corresponded to half-maximal inhibition (IC50). As for `Nc1ncnc2c1c(-c1ccccc1)cn2C1CC1`, the IC50 is 251 nM. In turn, `Clc1ncnc2c1c(-c1ccccc1)cn2-c1ccccc1` showed an IC50 of 7940 nM. `CCOC(=O)C[C@@H]1C[C@H](n2cc(-c3ccccc3)c3c(N)ncnc32)CN1C(=O)OC(C)(C)C` gave a half-maximal inhibitory concentration (IC50) of 5010 nM. Same read-out and setting: for `Nc1ncnc2c1c(-c1ccc(O)cc1)cn2C1CCC1` the value was 10 nM.

`CSc1nc(Nc2cccc(Cl)c2)c2cnn(CC(Cl)c3ccccc3)c2n1` (centres undefined) had an inhibitory constant (Ki) of 794 nM. In the case of `COc1cccc(-c2cn(C3CCN(CC(N)=O)CC3)c3ncnc(N)c23)c1`, the half-inhibitory concentration (IC50) was 20 nM. As to `COc1cccc(-c2cn(-c3ccc(CNCCO)cc3)c3ncnc(N)c23)c1`, the IC50 was 31.6 nM. Turning to `Nc1ncnc2c1c(-c1ccccc1)cn2[C@H](CO)c1ccccc1`, the half-maximal inhibitory concentration (IC50) was 5010 nM. The molecule `Nc1ncnc2c1c(-c1ccccc1)cn2[C@H]1CN[C@H](CO)C1` showed an IC50 of 316 nM.

For `Nc1ncnc2c1c(-c1ccccc1)cn2CC(CO)CO`, half-maximal inhibition (IC50) required 200 nM. `Nc1ncnc2c1c(-c1ccccc1)cn2-c1ccccc1CO` showed a 50% inhibitory concentration (IC50) of 316 nM. Regarding `CCOC(=O)c1ccc(-c2cn(-c3ccccc3)c3ncnc(N)c23)cc1`, the IC50 was 10000 nM. `Nc1ncnc2c1c(-c1ccc(O)cc1)cn2CC(CO)CO` gave an IC50 of 501 nM. As for `CCOC(=O)C[C@@H]1C[C@H](n2cc(-c3ccc(O)cc3)c3c(N)ncnc32)CN1C(=O)OC(C)(C)C`, the IC50 was 316 nM.
